Source: US9820996B2, “Preparation method for antithyroid ointment for external application” (priority 2014, dated 2017)
“Also recorded” adds a separate entry of the source.

Test system: hyperthyroidism patients
Experiment: Typical cases of clinical treatment (case reports)
Type: in vivo, human
Conditions: propylthiouracil and methimazole taken successively
Source text: The present example includes following typical cases of clinical treatment.

| SMILES | adverse reaction that led to discontinuing oral treatment (patient history) |
| --- | --- |
| Cn1cc[nH]c1=S [methimazole] | severe drug-induced liver damage; also recorded: severe neutropenia; also recorded: acute urticaria |
| CCCc1cc(=O)[nH]c(=S)[nH]1 [propylthiouracil] | severe drug-induced liver damage; also recorded: severe neutropenia; also recorded: acute urticaria |
